Structures can show the parent of a compound that is named as a salt.
What was measured:
[1] = biological target: T1, Recombinant human IKKβ (residues 1-737) (Homo sapiens, UniProt O14920); assay: IKK2 assay (TR-FRET); format: biochemical; settings: ATP 1 μM final, read-out: pIC50 against IKK2 (converted)
T1 construct: Recombinant human IKKβ (residues 1-737); GST (C); made in house
T1 sequence (O14920 1-737): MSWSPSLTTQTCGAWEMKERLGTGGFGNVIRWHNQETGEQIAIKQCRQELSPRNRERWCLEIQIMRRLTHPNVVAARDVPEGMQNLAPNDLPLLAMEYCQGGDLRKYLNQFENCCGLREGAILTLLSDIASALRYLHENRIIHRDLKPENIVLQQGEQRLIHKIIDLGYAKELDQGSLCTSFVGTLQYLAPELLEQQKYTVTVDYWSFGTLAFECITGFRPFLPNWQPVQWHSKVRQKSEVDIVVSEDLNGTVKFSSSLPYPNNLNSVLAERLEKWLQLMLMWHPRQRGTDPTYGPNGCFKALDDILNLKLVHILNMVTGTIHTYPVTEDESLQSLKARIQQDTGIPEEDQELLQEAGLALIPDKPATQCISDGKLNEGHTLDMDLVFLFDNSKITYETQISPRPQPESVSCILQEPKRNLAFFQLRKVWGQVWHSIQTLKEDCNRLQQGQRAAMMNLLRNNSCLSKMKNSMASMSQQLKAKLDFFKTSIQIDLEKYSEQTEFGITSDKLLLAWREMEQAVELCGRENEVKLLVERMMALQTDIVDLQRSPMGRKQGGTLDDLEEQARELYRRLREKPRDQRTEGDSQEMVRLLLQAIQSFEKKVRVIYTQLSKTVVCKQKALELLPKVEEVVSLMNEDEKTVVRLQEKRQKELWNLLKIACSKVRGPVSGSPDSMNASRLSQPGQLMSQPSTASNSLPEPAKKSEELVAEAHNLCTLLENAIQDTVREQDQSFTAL
Summary of the method: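 TR-FRET readout (665 nm over 620 nm Eu reference) of GST-IB Ser32/36 phosphorylation after 60 min detection. Reaction: 1 μM ATP, 25 nM substrate, 0.5-5 nM GST-fused IKKβ 1-737 from baculovirus, pH 7.4 HEPES buffer, 1.7% DMSO, 15 min room temperature, EDTA-terminated.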

[2] = test system: human monocyte stimulated cytokine production (TNF-α); assay: Monocyte assay (LPS-stimulated TNF-α production); format: cell-based; settings: 24 h, 200 ng/mL LPS, TNF-α by ELISA
Summary of the method: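 TNF-α release was measured by ELISA after 24 hrs at 37 C. Cells were stimulated with 200 ng/mL E. coli LPS, with compound added 30 minutes beforehand (0.1% DMSO vehicle). Cells were Ficoll/MACS-isolated CD14+ human monocytes adhered at 1×10^6 cells/mL, and viability was checked by trypan blue.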

Row | SMILES | IC50 [1] [µM] | IC50 [2] [µM]
1 | CCS(=O)(=O)N1CCC(c2c[nH]c3c(C(N)=O)cc(-c4cc(CN5CCCC5)cs4)cc23)CC1 [Example 209, 3-[1-(ethylsulfonyl)-4-piperidinyl]-5-[4-(1-pyrrolidinylmethyl)-2-thienyl]-1H-indole-7-carboxamide trifluoroacetate] | ≤ 10 | ≤ 1.5
2 | CCS(=O)(=O)N1CCC(c2c[nH]c3c(C(N)=O)cc(-c4cc(CN(C)C)cs4)cc23)CC1 [Example 211, 5-{4-[(dimethylamino)methyl]-2-thienyl}-3-[1-(ethylsulfonyl)-4-piperidinyl]-1H-indole-7-carboxamide trifluoroacetate] | ≤ 10 | ≤ 1.5
3 | CCS(=O)(=O)N1CCC(c2c[nH]c3c(C(N)=O)cc(-c4cc(F)cc(CNCC5CCCC5)c4)cc23)CC1 [Example 323, 5-(3-{[(cyclopentylmethyl)amino]methyl}-5-fluorophenyl)-3-[1-(ethylsulfonyl)-4-piperidinyl]-1H-indole-7-carboxamide trifluoroacetate] | ≤ 10 | ≤ 1.5
4 | CCCNc1cc(-c2cc(C(N)=O)c3[nH]cc(C4CCN(S(=O)(=O)CC)CC4)c3c2)ccn1 [Example 207, 3-[1-(ethylsulfonyl)-4-piperidinyl]-5-[2-(propylamino)-4-pyridinyl]-1H-indole-7-carboxamide trifluoroacetate] | ≤ 10 | > 1
5 | CCS(=O)(=O)N1CCC(c2c[nH]c3c(C(N)=O)cc(-c4cc(CN[C@@H](C)C(C)C)ccc4F)cc23)CC1 [Example 337, 5-[5-({[(1S)-1,2-dimethylpropyl]amino}methyl)-2-fluorophenyl]-3-[1-(ethylsulfonyl)-4-piperidinyl]-1H-indole-7-carboxamide trifluoroacetate] | ≤ 10 | ≤ 1.5
6 | CCS(=O)(=O)N1CCC(c2c[nH]c3c(C(N)=O)cc(-c4ccc(CNC5CC5)s4)cc23)CC1 [Example 170, 5-{5-[(cyclopropylamino)methyl]-2-thienyl}-3-[1-(ethylsulfonyl)-4-piperidinyl]-1H-indole-7-carboxamide] | ≤ 10 | ≤ 1.5
7 | CCS(=O)(=O)N1CCC(c2c[nH]c3c(C(N)=O)cc(-c4cc(F)cc(CNCC5CCOCC5)c4)cc23)CC1 [Example 324, 3-[1-(ethylsulfonyl)-4-piperidinyl]-5-(3-fluoro-5-{[(tetrahydro-2H-pyran-4-ylmethyl)amino]methyl}phenyl)-1H-indole-7-carboxamide trifluoroacetate] | ≤ 10 | ≤ 1.5
8 | CCS(=O)(=O)N1CCC(c2c[nH]c3c(C(N)=O)cc(-c4cccc(CNC(=O)c5cc6ccccc6s5)c4)cc23)CC1 [Example 363, 5-(3-{[(1-benzothien-2-ylcarbonyl)amino]methyl}phenyl)-3-[1-(ethylsulfonyl)-4-piperidinyl]-1H-indole-7-carboxamide] | ≤ 10 | > 1
9 | CCS(=O)(=O)N1CCC(c2c[nH]c3c(C(N)=O)cc(-c4ccnc(NCC(C)C)c4)cc23)CC1 [Example 205, 3-[1-(ethylsulfonyl)-4-piperidinyl]-5-{2-[(2-methylpropyl)amino]-4-pyridinyl}-1H-indole-7-carboxamide trifluoroacetate] | ≤ 10 | > 1
10 | CCCNCc1ccc(-c2cc(C(N)=O)c3[nH]cc(C4CCN(S(=O)(=O)CC)CC4)c3c2)s1 [Example 241, 3-[1-(ethylsulfonyl)-4-piperidinyl]-5-{5-[(propylamino)methyl]-2-thienyl}-1H-indole-7-carboxamide trifluoroacetate] | ≤ 10 | ≤ 1.5
